Data as given in patent publication US5786333A, “Platelet aggregation inhibitors” (COR Therapeutics, Inc., priority 1995, dated 1998).
Like-named read-outs stand apart in the source and are kept apart here. Where a SMILES comes first, the peptide text is derived from it. Bridges are numbered along the chain shown (N, C = ends).

How the values were obtained:
open chest dog = assay: Folts model of thrombosis in dog coronary artery (cyclic flow reductions); format: in vivo
Description: A. Initiation of cyclic flow reductions (CFRs) in open chest dog. An occluder placed on the left anterior descending (LAD) coronary artery of a 20 kg dog, as previously described was performed.

GP IIb-IIIa = biological target: T1, GP IIb-IIIa (Homo sapiens, UniProt P05106+P08514); assay: Fibrinogen/GP IIb-IIIa plate binding assay; details: for differential inhibition of fibrinogen/GP IIb-IIIa binding as compared to vitronectin/vitronectin receptor binding: plate assays, FIG. 30; for inhibition of binding of fibrinogen to GP IIb-IIIa (in words): plate assay
T1 construct: Purified platelet GP IIb-IIIa receptor was prepared as described by Fitzgerald, L. A., et al; from tissue; host or cells: platelets
Description: In the assay, GP IIb-IIIa, prepared in purified form, for example as described by Fitzgerald, L. A., et al., Anal Biochem (1985) 151:169-177, incorporated herein by reference, is coated onto a solid support such as beads, test tubes, or microtiter plates. The coated support is then contacted with fibrinogen and with the test material and incubated for a sufficient time to permit maximal binding of fibrinogen to the immobilized GP IIb-IIIa. Fibrinogen is typically provided at a concentration of about 5-50 nM and the test material can, if desired, be added at a series of dilutions. Typical incubations are 2-4 hr at 35° C., the time and temperature being interdependent.
After incubation, the solution containing the fibrinogen and test material is removed and the level of binding of fibrinogen measured by quantitating bound fibrinogen to GP IIb-IIIa. Any suitable means of detection may be used, but it is convenient to employ labeled fibrinogen, for example using radioactive, fluorescent or biotinylated labels. Such methods are well known and need not be elaborated here.
In this case, percent inhibition may be calculated using the amount of Fg bound in the control as representing the basis, so that [formula] Other measures of inhibition effectiveness, such as IC50, may also be used.
Purified platelet GP IIb-IIIa receptor was prepared as described by Fitzgerald, L. A., et al., Anal Biochem (1985) 151:169-177. Vitronectin receptor was prepared as described by Smith, J. W., J Biol Chem (1988) 263:18726-18731. After purification, the receptors were stored in 0.1% Triton X-100 at 0.1-1.0 mg/ml.
The receptors were coated to the wells of 96-well flat-bottom ELISA plates (Linbro EIA-Plus microtiter plate, Flow Laboratories) after diluting 1:200 with a solution of […], 150 mM NaCl, 1 mM CaCl2, pH 7.4, to reduce the Triton X-100 concentration to below its critical micellar concentration and adding an aliquot of 100 ul to each well. The wells were all allowed to incubate overnight at 4° C., and then aspirated to dryness. Additional sites were blocked by the addition of bovine serum albumin (BSA) at 35 mg/ml in the above buffer for 2 hr at 30° C. to prevent nonspecific binding. The wells were then washed once with binding buffer ([…] Tris-HCl, 100 mM NaCl, 2 mM CaCl2, 1 mg/ml BSA).
The corresponding ligands (fibrinogen, von Willebrand Factor, or vitronectin) were labeled with ^125 I or conjugated to biotin using commercially available re-agents and standard protocols. The labeled ligands were added to the receptor-coated wells at final concentration of 10 nM (100 ul/well) and incubated for 3 h at 30° C. in the presence or absence of the test samples. After incubation, the wells are aspirated to dryness and bound ligand is quantitated.
(§1) For ^125 I-labeled ligands, the protein is solubilized with 250 ul SDS. For biotinylated ligands, the bound protein is detected by the addition of antibiotin antibody conjugated to alkaline phosphatase followed by addition of substrate (p-nitrophenyl phosphate), and determination of the optical density of each well at 405 nm.
Sixty-eight crude, lyophilized snake venoms obtained from either Sigma Chemical Company (St. Louis, Mo.) or Miami Serpentarium Labs (Salt Lake City, Utah) were dissolved at 1 mg/ml in buffer (50 mM Tris, 100 mM NaCl, 0.02% azide, 2 mM CaCi2). One ml aliquots of the solutions were subjected to ultrafiltration through Centrocon-10 (YM membrane) microconcentrators (Amicon, Danvers, Mass.). The filtrates were used as test samples in the receptor/ligand assay of paragraph A using the GP IIb-IIIa/fibrinogen system, and detecting binding using biotinylated fibrinogen.

human platelets = human platelets (Homo sapiens, UniProt P05106+P08514); assay: ADP-induced human platelet aggregation in platelet rich plasma; format: cell-based
Description: In these assays, washed platelets are combined with fibrinogen, Ca^+2 and the material to be tested.
Platelet rich plasma (PRP) was obtained from a healthy human volunteer. Aggregation was induced by the addition of 4 uM ADP to 0.5 ml PRP in an aggregometer (Chrono-log Corp.).
Fractions were concentrated to one-half their original volume using a Speed-Vac concentrator (Savant) followed by lyophilization. Samples were then reconstituted in 1 ml distilled water and aliquots (10-50 ul) assayed for their ability to inhibit human platelet aggregation in platelet-rich plasma induced by 20 uM ADP using a whole blood aggregometer (Chrono-Log Corp., Havertown, Pa.).

M21 melanoma cells = assay: M21 melanoma cell attachment to vitronectin; format: cell-based; details: for inhibition of M21 melanoma cell attachment to vitronectin (in words): 35S-methionine labelled cells, vitronectin-coated plates
Description: M21 melanoma cells, which express high levels of the vitronectin receptor, were metabolically labelled with ^35 S-methionine, and then added to 24--well tissue culture plates coated with vitronectin. An incubation period of 1 hr at 37° C. was allowed for cell attachment, and this was followed by a wash to remove non-adherent cells. After washing, the adherent cells were solubilized, and the supernatants placed in a liquid scintillation counter. The fraction of cells remaining adherent was calculated by dividing the cpm in the solubilized supernatants by the cpm in the total number of cells added to each well. The effects of purifed snake venom peptides and synthetic cyclic peptides on cell adhesion was determined by including them with the M21 cells during the incubation period.
M21 melanoma cells were labelled with ^35 S-methionine, and then added to vitronectin-coated plates in the presence of the indicated concentrations of purified snake venom peptides. Cell attachment was measured by solubilizing the cells remaining after an incubation and wash, as described in Section C, on page 40.

vitronectin receptor = biological target: T2, vitronectin receptor (Homo sapiens, UniProt P05106+P06756); assay: Vitronectin/vitronectin receptor plate binding assay
T2 construct: Vitronectin receptor was prepared as described by Smith, J. W., J Biol Chem (1988) 263:18726-18731; from tissue; the cited method uses human placenta (own knowledge)
T2 sequence (P06756 31-889 limits assumed): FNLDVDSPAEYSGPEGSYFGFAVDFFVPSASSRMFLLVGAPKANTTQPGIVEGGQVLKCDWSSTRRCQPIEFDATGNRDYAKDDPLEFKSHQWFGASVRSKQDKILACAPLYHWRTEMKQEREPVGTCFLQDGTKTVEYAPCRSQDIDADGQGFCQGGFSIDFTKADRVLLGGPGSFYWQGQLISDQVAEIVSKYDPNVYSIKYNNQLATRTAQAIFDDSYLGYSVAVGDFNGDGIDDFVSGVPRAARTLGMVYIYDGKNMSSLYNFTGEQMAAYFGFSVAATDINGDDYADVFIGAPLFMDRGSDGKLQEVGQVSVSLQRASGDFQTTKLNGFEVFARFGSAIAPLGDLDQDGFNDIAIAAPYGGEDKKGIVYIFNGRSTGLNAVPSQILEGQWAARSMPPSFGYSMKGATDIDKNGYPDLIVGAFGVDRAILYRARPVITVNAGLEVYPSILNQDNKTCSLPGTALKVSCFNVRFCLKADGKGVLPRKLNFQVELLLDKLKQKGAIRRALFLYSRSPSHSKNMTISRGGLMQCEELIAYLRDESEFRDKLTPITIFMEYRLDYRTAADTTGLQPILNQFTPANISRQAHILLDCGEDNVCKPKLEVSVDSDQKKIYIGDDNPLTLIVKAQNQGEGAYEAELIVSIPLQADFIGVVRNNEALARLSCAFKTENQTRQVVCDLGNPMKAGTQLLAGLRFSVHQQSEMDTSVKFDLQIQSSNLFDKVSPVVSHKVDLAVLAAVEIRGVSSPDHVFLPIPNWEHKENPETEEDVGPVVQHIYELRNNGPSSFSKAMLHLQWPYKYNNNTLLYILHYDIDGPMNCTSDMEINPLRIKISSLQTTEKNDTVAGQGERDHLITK
T2 sequence (P06756 891-1048 partner limits assumed): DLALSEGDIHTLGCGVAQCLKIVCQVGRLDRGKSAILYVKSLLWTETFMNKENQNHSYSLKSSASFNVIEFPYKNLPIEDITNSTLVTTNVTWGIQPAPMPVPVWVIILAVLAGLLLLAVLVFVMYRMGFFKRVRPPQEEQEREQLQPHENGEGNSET
T2 sequence (P05106 27-788): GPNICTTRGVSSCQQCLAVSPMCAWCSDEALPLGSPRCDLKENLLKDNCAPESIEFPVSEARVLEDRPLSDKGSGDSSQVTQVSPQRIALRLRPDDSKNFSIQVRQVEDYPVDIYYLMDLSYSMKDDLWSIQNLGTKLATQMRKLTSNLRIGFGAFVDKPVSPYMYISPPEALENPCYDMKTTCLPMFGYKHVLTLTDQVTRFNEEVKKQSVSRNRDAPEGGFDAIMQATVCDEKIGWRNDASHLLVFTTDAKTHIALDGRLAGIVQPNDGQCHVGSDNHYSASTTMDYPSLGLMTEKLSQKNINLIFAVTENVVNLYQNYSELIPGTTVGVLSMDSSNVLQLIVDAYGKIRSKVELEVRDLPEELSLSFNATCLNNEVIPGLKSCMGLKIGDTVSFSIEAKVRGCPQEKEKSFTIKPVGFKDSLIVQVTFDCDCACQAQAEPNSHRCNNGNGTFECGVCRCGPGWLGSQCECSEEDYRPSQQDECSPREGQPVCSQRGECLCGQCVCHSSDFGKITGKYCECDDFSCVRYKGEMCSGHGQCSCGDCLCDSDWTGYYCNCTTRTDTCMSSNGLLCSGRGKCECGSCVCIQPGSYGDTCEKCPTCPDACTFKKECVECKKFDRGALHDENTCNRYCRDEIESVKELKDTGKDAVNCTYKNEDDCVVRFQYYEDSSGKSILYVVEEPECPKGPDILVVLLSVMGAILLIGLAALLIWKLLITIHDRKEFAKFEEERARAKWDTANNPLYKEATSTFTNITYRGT
From the text: The assay systems of the invention further include characterization of the PAI specificity by binding inhibition assays identical to that above but substituting other adhesive proteins for Fg and other receptors for GP IIb-IIIa. In particular, inhibition of the binding of vitronectin to the vitronectin receptor; fibronectin to the fibronectin receptor; fibronectin to GP IIb-IIIa and fibrinogen and/or vWF to GP IIb-IIIa may be assessed. The adhesive protein and receptors for these assays are available in the art.
Purified platelet GP IIb-IIIa receptor was prepared as described by Fitzgerald, L. A., et al., Anal Biochem (1985) 151:169-177. Vitronectin receptor was prepared as described by Smith, J. W., J Biol Chem (1988) 263:18726-18731. […]
The corresponding ligands (fibrinogen, von Willebrand Factor, or vitronectin) were labeled with ^125 I or conjugated to biotin using commercially available re-agents and standard protocols. […] After incubation, the wells are aspirated to dryness and bound ligand is quantitated.
as §1, with “nm. […]” for “nm.”

platelet receptors = platelet receptors (Homo sapiens, UniProt P05106+P08514); details: read-out: IC50 (affinity of interaction with platelet receptors); background art; cited from earlier work
[1] = ADP-induced human platelet aggregation, table of Example 17, read-out: Appr. IC50

For C[C@H](NC(=O)[C@@H]1CSSC[C@H](NC(=O)CN)C(=O)NCC(=O)N[C@@H](CCCCN)C(=O)NCC(=O)N[C@@H](CC(=O)O)C(=O)N[C@@H](Cc2c[nH]c3ccccc23)C(=O)N2CCC[C@H]2C(=O)N1)C(N)=O [#3], the “effect on cyclic flow reductions (CFRs) in LAD coronary artery” value (open chest dog; 10 mg infused into a peripheral vein, 20 kg open chest dog, FIG. 36) was “partial ablation of the CFRs” and the “effect on cyclic flow reductions (CFRs) in LAD coronary artery” value (open chest dog; second infusion of 40 mg into a peripheral vein, open chest dog, FIG. 37) was “complete ablation of the CFRs”.

For C[C@H](NC(=O)[C@@H]1CSSC[C@H](NC(=O)CN)C(=O)N[C@@H](CCCCN)C(=O)NCC(=O)N[C@@H](CC(=O)O)C(=O)N[C@@H](Cc2c[nH]c3ccccc23)C(=O)N2CCC[C@H]2C(=O)N1)C(N)=O [#4] (H-GCKGDWPCA-NH2; disulfide 2-8), the “differential inhibition of fibrinogen/GP IIb-IIIa binding as compared to vitronectin/vitronectin receptor binding” value (GP IIb-IIIa) was “highest differential”.

In the case of NCCCC[C@@H]1NC(=O)CNC(=O)[C@@H](N)CSSC[C@@H](C(N)=O)NC(=O)[C@@H]2CCCN2C(=O)[C@H](Cc2c[nH]c3ccccc23)NC(=O)[C@H](CC(=O)O)NC(=O)CNC1=O [#5] (H-CGKGDWPC-NH2; disulfide 1-8), the “differential inhibition of fibrinogen/GP IIb-IIIa binding as compared to vitronectin/vitronectin receptor binding” value (GP IIb-IIIa) is reported as “quite specific” and the “platelet aggregation inhibition (in words)” value (human platelets) is reported as “excellent platelet aggregation inhibition activities”.

With C[C@H](NC(=O)[C@@H]1CSSC[C@H](NC(=O)CN)C(=O)NCC(=O)N[C@@H](CCCCN)C(=O)NCC(=O)N[C@@H](CC(=O)O)C(=O)N[C@@H](Cc2c[nH]c3ccccc23)C(=O)N1)C(N)=O [#6] (H-GCGKGDWCA-NH2; disulfide 2-8) the IC50 (human platelets; [1]) was > 200 µM.

With C[C@H](NC(=O)[C@@H]1CSSC[C@H](NC(=O)CN)C(=O)N[C@@H](CCCCN)C(=O)NCC(=O)N[C@@H](CC(=O)O)C(=O)N[C@@H](Cc2c[nH]c3ccccc23)C(=O)N1)C(N)=O [#7] (H-GCKGDWCA-NH2; disulfide 2-7) the “differential inhibition of fibrinogen/GP IIb-IIIa binding as compared to vitronectin/vitronectin receptor binding” value (GP IIb-IIIa) was “quite specific”, the “platelet aggregation inhibition (in words)” value (human platelets) was “excellent platelet aggregation inhibition activities” and the IC50 (human platelets; text of Example 17, read-out: IC50 for ability to inhibit ADP-induced human platelet aggregation) was 100 µM.

For NCCCC[C@@H]1NC(=O)[C@@H](N)CSSC[C@@H](C(N)=O)NC(=O)[C@@H]2CCCN2C(=O)[C@H](Cc2c[nH]c3ccccc23)NC(=O)[C@H](CCC(=O)O)NC(=O)CNC1=O [#35] (H-CKGEWPC-NH2; disulfide 1-7), the IC50 (human platelets; [1]) was > 300 µM.

In the case of C[C@H](NC(=O)[C@@H]1CSSC[C@H](NC(=O)CN)C(=O)NCC(=O)N[C@@H](CCCCN)C(=O)NCC(=O)N[C@@H](CC(=O)O)C(=O)N[C@@H](Cc2c[nH]c3ccccc23)C(=O)N1)C(N)=O [Analog 6] (H-GCGKGDWCA-NH2; disulfide 2-8), the “differential inhibition of fibrinogen/GP IIb-IIIa binding as compared to vitronectin/vitronectin receptor binding” value (GP IIb-IIIa) is reported as “differentially capable”.

In the case of CC(=O)N[C@H]1CSSC[C@@H](C(N)=O)NC(=O)[C@H](CC(=O)O)NC(=O)CNC(=O)[C@H](CCCCN)NC1=O [Analog 8] (Ac-CKGDC-NH2; disulfide 1-5), the “differential inhibition of fibrinogen/GP IIb-IIIa binding as compared to vitronectin/vitronectin receptor binding” value (GP IIb-IIIa) is reported as “differentially capable”.

For C[C@H](NC(=O)[C@@H]1CSSC[C@H](NC(=O)CN)C(=O)NCC(=O)N[C@@H](CCCCN)C(=O)NCC(=O)N[C@@H](CC(=O)O)C(=O)N[C@@H](Cc2c[nH]c3ccccc23)C(=O)N2CCC[C@H]2C(=O)N1)C(N)=O [Analog #3, G-C-G-K-G-D-W-P-C-A-NH2], the “inhibition of M21 melanoma cell attachment to vitronectin (in words)” value (“inhibition … to vitronectin (in words)” for short) (M21 melanoma cells) was “lack of ability” and the “concentration up to which ineffective on M21 cell attachment to vitronectin” value (M21 melanoma cells; FIG. 32) was > 60 µM.

In the case of N=C(N)NCCC[C@H](N)C(=O)NCC(=O)N[C@@H](CC(=O)O)C(=O)N[C@@H](Cc1c[nH]c2ccccc12)C(N)=O [RGDW-NH2, reference compound] (H-RGDW-NH2), the “inhibition of binding of fibrinogen to GP IIb-IIIa (in words)” value (GP IIb-IIIa) is reported as “very similar in activity to cyclic GCGRGDWPCA-NH2”.

For C[C@H](NC(=O)[C@@H]1CSSC[C@H](NC(=O)CN)C(=O)NCC(=O)N[C@@H](CCCNC(=N)N)C(=O)NCC(=O)N[C@@H](CC(=O)O)C(=O)N[C@@H](Cc2c[nH]c3ccccc23)C(=O)N2CCC[C@H]2C(=O)N1)C(N)=O [reference compound] (H-GCGRGDWPCA-NH2; disulfide 2-9), the “inhibition … to vitronectin (in words)” value (M21 melanoma cells) was “potent inhibitors of cell attachment” and the “inhibition … to vitronectin (in words)” value (M21 melanoma cells; listed as cyclic RGD compound) was “ability”.

For “ECADGLCCDQCRFLKKGTVCRVAKGDWNDDTCTGQSC- D-C-P-R-N-G-L-Y-G (ECADGLCCDQCRFLKKGTVCRVAKGDWNDDTCTGQSCDCPRNGLYG) [Analog #1]”, the “platelet aggregation inhibition (in words)” value (human platelets) was “potent inhibitors of platelet aggregation” and the “inhibition … to vitronectin (in words)” value (M21 melanoma cells) was “neither barbourin nor Peptide 1 (truncated barbourin) had a significant effect”.

For “EEPCATGPCCRRCKFKRAGKVCRVAKGDWNNDYCTGKSCDCPRNPWNG (EEPCATGPCCRRCKFKRAGKVCRVAKGDWNNDYCTGKSCDCPRNPWNG) [Analog #2]”, the “inhibition of binding of fibrinogen to GP IIb-IIIa (in words)” value (GP IIb-IIIa) was “ability” and the “inhibition of binding of vitronectin to vitronectin receptor (in words)” value (vitronectin receptor) was “inability to inhibit”.

For HHLGGAQKAGDV, the IC50 (platelet receptors) is given as 10 to 100 µM.
